From ChEMBL document CHEMBL3881526, “Selective androgen receptor modulators and method of use thereof” (2007)
Active and inactive are the calls of the source. The rule behind the calls is not given here.

Key:
Rattus norvegicus [1] = experiment: Anabolic activity in ORX Sprague-Dawley rat assessed as restoration of levator ani muscle weight at 0.1 to 1 ug/day delivered at constant rate for 14 days via subcutaneous osmotic pumps; assay type: functional
Rattus norvegicus [2] = experiment: Androgenic activity in ORX Sprague-Dawley rat assessed as restoration of prostate weight at 0.1 to 1 ug/day delivered at constant rate for 14 days via subcutaneous osmotic pumps; assay type: functional
Rattus norvegicus [3] = experiment: Androgenic activity in ORX Sprague-Dawley rat assessed as restoration of seminal vesicles weight at 0.1 to 1 ug/day delivered at constant rate for 14 days via subcutaneous osmotic pumps; assay type: functional
Bone marrow cell [4] = experiment: Induction of differentiation of rat primary bone marrow cells toward osteoblast lineage assessed as ALP activity at 1 uM by spectrophotometric analysis; assay type: functional, cell-based
Rattus norvegicus [5] = experiment: Androgenic activity in ORX Sprague-Dawley rat assessed as restoration in seminal vesicle weight at 1 mg/day measured after delayed dosing administered 9 days post ORX via oral gavage for 14 days relative to intact control; assay type: functional
Rattus norvegicus [6] = experiment: Androgenic activity in ORX Sprague-Dawley rat assessed as restoration of prostate weight measured after delayed dosing administered 9 days post ORX via oral gavage for 14 days; assay type: functional
Rattus norvegicus [7] = species: Rattus norvegicus; experiment: Effect on serum FSH in intact Sprague-Dawley rat at 0.1 mg/day measured for 14 days (reference value: 6.40 +/- 1.58 ng/ml); assay type: functional
Homo sapiens [8] = experiment: Effect on lean weight level in healthy human at 3 mg administered daily via mouth for 14 days (reference value: 436.47 g); assay type: functional
Homo sapiens [9] = experiment: Effect on tissue weight in healthy human at 3 mg administered daily via mouth for 14 days (reference value: -8.24 g); assay type: functional
Homo sapiens [10] = experiment: Effect on lean weight level in truncal obese human at 3 mg administered daily via mouth for 14 days (reference value: 436.47 g); assay type: functional
Rattus norvegicus [11] = experiment: Androgenic activity in ORX Sprague-Dawley rat assessed as restoration in seminal vesicle weight at 0.3 mg/day measured after delayed dosing administered 9 days post ORX via oral gavage for 14 days relative to intact control; assay type: functional
Rattus norvegicus [12] = experiment: Reduction in serum cholesterol in male Sprague-Dawley rat at 3 mg/kg, po qd administered for 28 days; assay type: functional; set-up: scale not given: the % may be the effect or the level left
Homo sapiens [13] = experiment: Effect on fat weight in healthy human at 10 mg administered daily via mouth for 14 days (reference value: 436 g); assay type: functional
Rattus norvegicus [14] = experiment: Effect on serum FSH in ORX Sprague-Dawley rat at 1 mg/day administered 9 days post ORX via oral gavage for 14 days (reference value: 43.45 +/- 4.97 ng/ml); assay type: functional
Homo sapiens [15] = experiment: Effect on regional fat level in healthy human at 3 mg administered daily via mouth for 14 days (reference value: 0.64%); assay type: functional
Rattus norvegicus [16] = species: Rattus norvegicus; experiment: Effect on serum LH in intact Sprague-Dawley rat at 0.1 mg/day measured for 14 days (reference value: 0.281 +/- 0.126 ng/ml); assay type: functional
Homo sapiens [17] = experiment: Effect on tissue weight in healthy human at 10 mg administered daily via mouth for 14 days (reference value: -8.24 g); assay type: functional
Rattus norvegicus [18] = experiment: Anabolic activity in ORX Sprague-Dawley rat assessed as increase in levator ani muscle weight at 0.1 mg/day measured after delayed dosing administered 9 days post ORX via oral gavage for 14 days relative to intact control; assay type: functional
Homo sapiens [19] = experiment: Effect on tissue fat level in truncal obese human at 30 mg administered daily via mouth for 14 days (reference value: 0.69%); assay type: functional, Adipose tissue
Homo sapiens [20] = experiment: Effect on fat weight in healthy human at 1 mg administered daily via mouth for 14 days (reference value: 436 g); assay type: functional
Rattus norvegicus [21] = experiment: Androgenic activity in intact Sprague-Dawley rat assessed as increase in prostate weight at 0.01 mg/day administered via oral gavage for 14 days relative to intact control; assay type: functional
[22] = Drug uptake in human plasma at 1 to 100 mg administered as PEG300-based solution after 72 hrs; assay type: ADME, cell-free
Rattus norvegicus [23] = experiment: Androgenic activity in ORX Sprague-Dawley rat assessed as increase in prostate weight at 0.75 mg/day measured after delayed dosing administered 9 days post ORX via oral gavage for 14 days relative to intact control; assay type: functional
Bone marrow cell [24] = experiment: Induction of differentiation of rat primary bone marrow cells toward osteoblast lineage assessed as ALP activity at 10 nM to 100 nM by spectrophotometric analysis; assay type: functional, cell-based
Rattus norvegicus [25] = experiment: Effect on serum LH in ORX Sprague-Dawley rat at 0.75 mg/day administered 9 days post ORX via oral gavage for 14 days (reference value: 9.66 +/- 1.13 ng/ml); assay type: functional
Homo sapiens [26] = experiment: Effect on lean weight level in healthy human at 10 mg administered daily via mouth for 14 days (reference value: 436.47 g); assay type: functional
Homo sapiens [27] = experiment: Effect on regional fat level in healthy human at 1 mg administered daily via mouth for 14 days (reference value: 0.64%); assay type: functional
Rattus norvegicus [28] = experiment: Effect on serum LH in ORX Sprague-Dawley rat at 0.3 mg/day administered 9 days post ORX via oral gavage for 14 days (reference value: 9.66 +/- 1.13 ng/ml); assay type: functional
Rattus norvegicus [29] = experiment: Reduction in serum cholesterol in female Sprague-Dawley rat at 100 mg/kg, po qd administered for 28 days; assay type: functional, organism-based
Homo sapiens [30] = experiment: Effect on regional fat level in healthy human at 30 mg administered daily via mouth for 14 days (reference value: 0.64%); assay type: functional
Homo sapiens [31] = experiment: Effect on tissue fat level in healthy human at 10 mg administered daily via mouth for 14 days (reference value: 0.69%); assay type: functional, Adipose tissue
Rattus norvegicus [32] = experiment: Androgenic activity in ORX Sprague-Dawley rat assessed as restoration in seminal vesicle weight at 0.03 mg/day measured after delayed dosing administered 9 days post ORX via oral gavage for 14 days relative to intact control; assay type: functional
[33] = Tmax in human plasma at 1 to 100 mg administered as PEG300-based oral solution; assay type: ADME, cell-free
Rattus norvegicus [34] = experiment: Androgenic activity in ORX Sprague-Dawley rat assessed as increase in prostate weight at 0.3 mg/day measured after delayed dosing administered 9 days post ORX via oral gavage for 14 days relative to intact control; assay type: functional
Rattus norvegicus [35] = experiment: Effect on serum LH in ORX Sprague-Dawley rat at 1 mg/day administered 9 days post ORX via oral gavage for 14 days (reference value: 9.66 +/- 1.13 ng/ml); assay type: functional
[36] = Terminal half life in human at 1 to 100 mg administered as PEG300-based solution after 72 hrs; assay type: ADME; details: in vivo, read-out: beta t1/2
Rattus norvegicus [37] = experiment: Androgenic activity in ORX Sprague-Dawley rat assessed as increase in prostate weight at 0.01 mg/day measured after delayed dosing administered 9 days post ORX via oral gavage for 14 days relative to intact control; assay type: functional
Rattus norvegicus [38] = species: Rattus norvegicus; experiment: Effect on serum FSH in intact Sprague-Dawley rat at 1 mg/day measured for 14 days (reference value: 6.40 +/- 1.58 ng/ml); assay type: functional
[39] = Tmax in human plasma at 1 to 100 mg administered as solid oral dosage; assay type: ADME, cell-free
Rattus norvegicus [40] = experiment: Increase in femoral maximum load in OVX Sprague-Dawley rat at 3 mg/day administered daily co-treated with 1 mg/day alendronate by oral gavage measured after 45 days; assay type: functional
Rattus norvegicus [41] = experiment: Androgenic activity in ORX Sprague-Dawley rat assessed as restoration in seminal vesicle weight at 0.01 mg/day measured after delayed dosing administered 9 days post ORX via oral gavage for 14 days relative to intact control; assay type: functional
Rattus norvegicus [42] = species: Rattus norvegicus; experiment: Effect on serum LH in intact Sprague-Dawley rat at 0.75 mg/day measured for 14 days (reference value: 0.281 +/- 0.126 ng/ml); assay type: functional
Rattus norvegicus [43] = experiment: Induction of […] bone density in ovary intact Sprague-Dawley rat at 3 mg/day administered daily by oral gavage measured after 45 days (reference value: 379 mg/mm'3); assay type: functional
Rattus norvegicus [44] = species: Rattus norvegicus; experiment: Effect on serum LH in intact Sprague-Dawley rat at 1 mg/day measured for 14 days (reference value: 0.281 +/- 0.126 ng/ml); assay type: functional
Rattus norvegicus [45] = experiment: Effect on serum FSH in ORX Sprague-Dawley rat at 0.1 mg/day administered 9 days post ORX via oral gavage for 14 days (reference value: 43.45 +/- 4.97 ng/ml); assay type: functional
Homo sapiens [46] = experiment: Effect on fat weight in healthy human at 3 mg administered daily via mouth for 14 days (reference value: 436 g); assay type: functional
Rattus norvegicus [47] = species: Rattus norvegicus; experiment: Effect on serum FSH in intact Sprague-Dawley rat at 0.75 mg/day measured for 14 days (reference value: 6.40 +/- 1.58 ng/ml); assay type: functional
Rattus norvegicus [48] = experiment: Effect on serum LH in ORX Sprague-Dawley rat at 0.01 mg/day administered 9 days post ORX via oral gavage for 14 days (reference value: 9.66 +/- 1.13 ng/ml); assay type: functional
Rattus norvegicus [49] = experiment: Anabolic activity in ORX Sprague-Dawley rat assessed as restoration of levator ani muscle weight measured after delayed dosing administered 9 days post ORX via oral gavage for 14 days; assay type: functional
Rattus norvegicus [50] = experiment: Induction of […] bone density in OVX Sprague-Dawley rat at 3 mg/day administered daily by oral gavage measured after 45 days (reference value: 215 mg/mm'3); assay type: functional
Homo sapiens [51] = experiment: Effect on bone mineral content in healthy human at 3 mg administered daily via mouth for 14 days (reference value: 36.47 g); assay type: functional
Rattus norvegicus [52] = species: Rattus norvegicus; experiment: Effect on serum LH in intact Sprague-Dawley rat at 0.3 mg/day measured for 14 days (reference value: 0.281 +/- 0.126 ng/ml); assay type: functional
Homo sapiens [53] = experiment: Effect on lean weight level in truncal obese human at 30 mg administered daily via mouth for 14 days (reference value: 436.47 g); assay type: functional
Rattus norvegicus [54] = experiment: Androgenic activity in ORX Sprague-Dawley rat assessed as restoration of seminal vesicles weight at 100 ug/day delivered at constant rate for 14 days via subcutaneous osmotic pumps; assay type: functional
Rattus norvegicus [55] = experiment: Anabolic activity in ORX Sprague-Dawley rat assessed as restoration of levator ani muscle weight at 100 ug/day delivered at constant rate for 14 days via subcutaneous osmotic pumps; assay type: functional, tissue-based
Rattus norvegicus [56] = experiment: Suppression of serum FSH in ORX Sprague-Dawley rat at 0.1 to 1 mg/day delivered at constant rate for 14 days via subcutaneous osmotic pumps; assay type: functional
Rattus norvegicus [57] = experiment: Androgenic activity in ORX Sprague-Dawley rat assessed as restoration of prostate weight at 100 ug/day delivered at constant rate for 14 days via subcutaneous osmotic pumps; assay type: functional

C[C@](O)(COc1ccc(Cl)cc1)C(=O)Nc1ccc(C#N)c(C(F)(F)F)c1
Activity (Rattus norvegicus [1]): Active
Activity (Rattus norvegicus [2]): Dose-dependent effect
Activity (Rattus norvegicus [3]): Dose-dependent effect

C[C@]12CCC(=O)C[C@@H]1CC[C@@H]1[C@@H]2CC[C@]2(C)[C@@H](O)CC[C@@H]12
Activity (Bone marrow cell [4]): Active

CC(O)(COc1ccc(C#N)cc1)C(=O)Nc1ccc(C#N)c(C(F)(F)F)c1 (stereo not drawn)
Activity (Rattus norvegicus [5]): 67%
ED50 (Rattus norvegicus [6]): 0.22 mg/kg
Emax (Rattus norvegicus [6]): 75%
Activity (Rattus norvegicus [7]): 6.6 ng/mL
Activity (Homo sapiens [8]): 752.11 g
Activity (Homo sapiens [9]): 728.89 g
Activity (Homo sapiens [10]): 1569.44 g
Activity (Rattus norvegicus [11]): 49%
Activity (Rattus norvegicus [12]): 30%
Activity (Homo sapiens [13]): 197.44 g
Activity (Rattus norvegicus [14]): 6.33 ng/mL
Activity (Homo sapiens [15]): -0.22%
Activity (Rattus norvegicus [16]): 0.177 ng/mL
Activity (Homo sapiens [17]): 566.22 g
Activity (Rattus norvegicus [18]): 103%
Activity (Homo sapiens [19]): -0.13%
Activity (Homo sapiens [20]): 197.89 g
Activity (Rattus norvegicus [21]): Active
Drug uptake [22]: Active
Activity (Bone marrow cell [4]): Active
Activity (Rattus norvegicus [23]): 62%
Activity (Bone marrow cell [24]): Active
Activity (Rattus norvegicus [25]): Below limit of detection
Activity (Homo sapiens [26]): 368.67 g
Activity (Homo sapiens [27]): 0.23%
Activity (Rattus norvegicus [28]): Below limit of detection
Activity (Rattus norvegicus [29]): Active
Activity (Homo sapiens [30]): 0.95%
Activity (Homo sapiens [31]): 0.1%
Activity (Rattus norvegicus [32]): 9%
Tmax [33]: 0.8 to 2.3 h
Activity (Rattus norvegicus [34]): 50%
Activity (Rattus norvegicus [35]): Below limit of detection
half-life [36]: 19 to 22 h
Activity (Rattus norvegicus [37]): 9%
Activity (Rattus norvegicus [38]): 4.38 ng/mL
Tmax [39]: 3.2 to 3.9 h
Activity (Rattus norvegicus [40]): 207 N
Activity (Rattus norvegicus [41]): 7%
Activity (Rattus norvegicus [42]): Below limit of detection
Activity (Rattus norvegicus [43]): 398 mg/mm3
Activity (Rattus norvegicus [44]): Below limit of detection
Activity (Rattus norvegicus [45]): 20.69 ng/mL
Activity (Homo sapiens [46]): -22.67 g
Activity (Rattus norvegicus [47]): 4.3 ng/mL
Activity (Rattus norvegicus [48]): 8.45 ng/mL
ED50 (Rattus norvegicus [49]): 0.013 mg/kg
Activity (Rattus norvegicus [50]): 406 mg/mm3
Activity (Homo sapiens [51]): -32.22 g
Activity (Rattus norvegicus [52]): Below limit of detection
Activity (Homo sapiens [53]): 261 g

C[C@](O)(COc1ccc(Br)cc1)C(=O)Nc1ccc([N+](=O)[O-])c(C(F)(F)F)c1
Activity (Rattus norvegicus [1]): Active
Activity (Rattus norvegicus [2]): <40%
Activity (Rattus norvegicus [3]): <40%

C[C@](O)(COc1ccc(Cl)cc1)C(=O)Nc1ccc([N+](=O)[O-])c(C(F)(F)F)c1
Activity (Rattus norvegicus [1]): Active
Activity (Rattus norvegicus [2]): <20%
Activity (Rattus norvegicus [3]): <20%

CCC(=O)O[C@H]1CC[C@H]2[C@@H]3CCC4=CC(=O)CC[C@]4(C)[C@H]3CC[C@]12C
Activity (Rattus norvegicus [54]): Active
Activity (Rattus norvegicus [55]): Active
Activity (Rattus norvegicus [56]): Active
Activity (Rattus norvegicus [57]): Active

C[C@](O)(COc1ccc(I)cc1)C(=O)Nc1ccc([N+](=O)[O-])c(C(F)(F)F)c1
Activity (Rattus norvegicus [1]): Active
Activity (Rattus norvegicus [2]): <40%
Activity (Rattus norvegicus [3]): <40%
